Results reported in article PMC2397535 (Breast Cancer Research : BCR, 2008).

Key:
[1] = tested on: BT-474; assay: antiproliferative effect (GI50), breast cancer cell line; type: cell-based; conditions: Homo sapiens
[2] = tested on: BT20; assay: as above; type: cell-based; conditions: Homo sapiens, BT-20
[3] = tested on: MDA-MB-157; assay: as above; type: cell-based; conditions: Homo sapiens
[4] = tested on: MDA-MB-231; assay: as above; type: cell-based; conditions: Homo sapiens
[5] = tested on: MDA-MB-468; assay: as above; type: cell-based; conditions: Homo sapiens
[6] = tested on: SkBr3; assay: as above; type: cell-based; conditions: Homo sapiens, SK-BR-3
[7] = tested on: MCF-7; assay: as above; type: cell-based; conditions: Homo sapiens, MCF7
[8] = target: HSP90-p23 complex (Homo sapiens, UniProt P07900)
Procedure: For immunoprecipitation, 300 μg of total protein was immunoprecipitated with 5 μg of rat anti-HSP90α monoclonal antibody (SPA-840, clone 9D2, isotype: IgG2a; Assay Designs, Inc.). Proteins were resolved by 12% SDS-PAGE and transferred to PVDF membranes.

- GI50 [1]: 17.4 ± 5.2 nM
- GI50 [2]: 18.9 ± 4.8 nM
- GI50 [3]: 29.5 ± 20.8 nM
- GI50 [4]: 2060 nM
- GI50 [5]: 1660 nM
- GI50 [6]: 11.9 ± 8 nM
- GI50 [7]: 69 ± 18.3 nM
- amount of HSP90α co-immunoprecipitating with p23 [8]: concentration-dependent decrease
- time to complete HSP90-p23 dissociation (full inhibition) [8]: ≤ 15 min
SMILES: C=CCNC1=C2C[C@@H](C)C[C@H](OC)[C@H](O)[C@@H](C)/C=C(\C)[C@H](OC(N)=O)[C@@H](OC)/C=C\C=C(/C)C(=O)NC(=CC1=O)C2=O [17-AAG, 17-allylamino-17-demethoxygeldanamycin, reference compound]
